Source: paper PMC6237173, “Synthesis of novel 6,7-dimethoxy-4-anilinoquinolines as potent c-Met inhibitors” (Journal of Enzyme Inhibition and Medicinal Chemistry, 2018)

How the values were obtained:
[1] = test system: MCF-7 (human breast cancer) cell line; assay: Cell proliferation assay (MTT), MCF-7; type: cell-based; settings: MCF7, 48 h exposure, n = 3 (mean ± SD), read-out: Proliferative inhibition IC50, MCF-7
Method: (§1) The anti-proliferative activities of the prepared compounds (12a-12s) were evaluated against A549, MCF-7 and MKN-45 cell lines by MTT assay in vitro. Briefly, tumour cells were cultured to log phase in RPMI 1640 medium supplemented with 10% foetal bovine serum (FBS). After diluting to 2 × 10^4 cells mL^−1 with the complete medium, 100 µL of the obtained cell suspension was added to each well of 96-well culture plates. Subsequently, incubation was performed at 37 °C in 5% CO2 for 24 h before the anti-proliferative assessment. Tested samples at pre-set concentrations were added to 6 wells with cabozantinib as a positive reference. After 48 h exposure period, 40 µL of PBS containing 2.5 mg mL^−1 of MTT was added to each well. Four hours later, 100 µL extraction solution (10% SDS-5% isobutyl alcohol-0.010M HCl) was added. After an overnight incubation at 37°C, the absorbance was measured at a wavelength of 570 nm with an ELISA microplate reader. All compounds were tested three times in each tumour cell lines. The IC50 values were the averages of three determinations and calculated by concentration-response curve fitting method.
(§2) All the synthesised compounds […] were evaluated for their antiproliferation activities against A549 (human lung cancer), MCF-7 (human breast cancer) and MKN-45 (human gastric cancer) cell lines by MTT assay, using cabozantinib as the positive control.

[2] = test system: MKN-45 (human gastric cancer) cell line; assay: Cell proliferation assay (MTT), MKN-45; type: cell-based; settings: 48 h exposure, n = 3 (mean ± SD), read-out: Proliferative inhibition IC50, MKN-45
Method: as §1, §2

[3] = test system: A549 (human lung cancer) cell line; assay: Cell proliferation assay (MTT), A549; type: cell-based; settings: 48 h exposure, n = 3 (mean ± SD), read-out: Proliferative inhibition IC50, A549
Method: as §1, §2

c-Met kinase = biological target: T1, c-Met kinase (Homo sapiens, UniProt P08581); assay: c-Met inhibition assay (Caliper motility shift assay); type: biochemical; settings: for c-Met inhibition % Inhibition (10 μΜ): 10 μΜ compound; for c-Met inhibition % Inhibition (10 μΜ) / IC50: n = 3 (mean ± SD)
T1 construct: purchased Carna
T1 sequence (P08581 25-1390): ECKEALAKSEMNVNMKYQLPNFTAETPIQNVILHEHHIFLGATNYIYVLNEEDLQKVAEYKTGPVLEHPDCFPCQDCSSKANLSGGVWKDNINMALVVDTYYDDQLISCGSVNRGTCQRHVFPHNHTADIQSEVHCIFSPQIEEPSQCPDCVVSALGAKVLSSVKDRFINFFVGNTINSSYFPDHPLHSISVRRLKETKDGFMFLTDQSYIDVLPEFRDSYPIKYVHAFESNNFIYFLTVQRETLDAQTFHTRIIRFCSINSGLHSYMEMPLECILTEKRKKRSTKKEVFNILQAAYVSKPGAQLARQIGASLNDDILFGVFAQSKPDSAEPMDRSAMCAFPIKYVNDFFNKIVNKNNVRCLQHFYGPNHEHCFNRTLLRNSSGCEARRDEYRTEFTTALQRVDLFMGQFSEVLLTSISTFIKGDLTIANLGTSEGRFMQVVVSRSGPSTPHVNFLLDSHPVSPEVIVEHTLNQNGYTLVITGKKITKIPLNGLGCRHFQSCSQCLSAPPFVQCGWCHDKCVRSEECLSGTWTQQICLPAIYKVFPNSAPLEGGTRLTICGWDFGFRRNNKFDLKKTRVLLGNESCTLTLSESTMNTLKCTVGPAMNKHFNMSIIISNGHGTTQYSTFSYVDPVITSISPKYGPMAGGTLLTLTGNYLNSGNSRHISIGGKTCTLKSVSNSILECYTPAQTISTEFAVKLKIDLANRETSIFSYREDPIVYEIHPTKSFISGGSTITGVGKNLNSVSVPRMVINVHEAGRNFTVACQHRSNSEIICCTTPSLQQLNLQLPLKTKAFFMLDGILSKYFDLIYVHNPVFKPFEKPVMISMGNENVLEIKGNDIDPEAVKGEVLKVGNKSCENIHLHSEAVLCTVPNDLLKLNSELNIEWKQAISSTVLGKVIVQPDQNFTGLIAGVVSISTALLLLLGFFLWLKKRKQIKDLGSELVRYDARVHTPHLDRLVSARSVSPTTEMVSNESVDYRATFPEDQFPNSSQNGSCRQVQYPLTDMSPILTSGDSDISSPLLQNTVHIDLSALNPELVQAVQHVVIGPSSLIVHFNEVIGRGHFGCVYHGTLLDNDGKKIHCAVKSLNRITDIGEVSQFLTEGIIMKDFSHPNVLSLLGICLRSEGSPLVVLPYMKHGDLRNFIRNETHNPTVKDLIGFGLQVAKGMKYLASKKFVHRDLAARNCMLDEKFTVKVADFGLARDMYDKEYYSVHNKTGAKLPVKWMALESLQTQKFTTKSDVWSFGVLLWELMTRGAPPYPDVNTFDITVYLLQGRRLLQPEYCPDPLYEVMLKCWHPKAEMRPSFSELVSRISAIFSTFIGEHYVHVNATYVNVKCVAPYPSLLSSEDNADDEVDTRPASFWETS
Method: A Caliper motility shift assay was applied to test the potency of synthesised compounds against c-Met kinase. Briefly, the compounds were dissolved in DMSO (Sigma) at 0.5 mM concentration, and then were diluted 50× to the final desired highest inhibitor concentration (10 μM) in reaction by DMSO. For all compounds, 100 μL of the diluted compound solution in tubes was transferred to a well on a 96-well plate (Corning) and was serially diluted 10× by transferring 10 μL dilution to 90 μL DMSO in the next well. 100 μL DMSO was added to two empty wells in the same 96-well plate for no compound control and no enzyme control. The plate was marked as source plate. 10 μL of compound solution from source plate was transferred to a new 96-well plate as the intermediate plate. […] After that, 5 μL solution from each well of the intermediate plate was transferred to a 384-well plate (Corning) as the assay plate in duplicates.c-Met kinase (Carna) was added in 1× kinase base buffer to prepare 2.5× enzyme solution, and FAM-labled peptide (GL Biochem) and ATP (Sigma) were added in 1× kinase base buffer to prepare 2.5× peptide solution. 10 μL of 2.5× enzyme solution was added to each well of the 384-well assay plate that already contained 5 μL of compound in 10% DMSO, and then incubated at room temperature for 10 min. […] The data were collected on Caliper and the conversion data were copied from Caliper program.
IC50 values were calculated from three independent experiments by fitting the data in XLfit with the following equation: Y = Bottom + (Top-Bottom)/(1 + (IC50/X)^HillSlope).

Compound | IC50 [1] [µM] | IC50 [2] [µM] | IC50 [3] [µM] | melting point [°C] | c-Met inhibition % Inhibition (10 μΜ) (c-Met kinase) [%] | IC50 (c-Met kinase) [µM] | fold lower c-Met activity than compound 12c (c-Met kinase; ratio of c-Met IC50 values, versus 12c) | c-Met inhibitory activity in words (c-Met kinase; SAR statement, ortho-substituted compounds) | fold more potent c-Met activity than compound 12b (c-Met kinase; ratio of c-Met IC50 values, versus 12b) [fold]
COc1cc2nccc(Nc3ccc4nc(-c5ccccc5I)[nH]c4c3)c2cc1OC [Compound 12h, N-(2–(2-iodophenyl)-1H-benzo[d]imidazol-6-yl)-6,7-dimethoxyquinolin-4-amine] | > 100 | > 100 | 92.4 ± 5.1 | 207 to 209 | 21.6 ± 2.5 | – | – | – | –
COc1cc2nccc(Nc3ccc4nc(-c5ccc(Br)cc5)[nH]c4c3)c2cc1OC [Compound 12g, N-(2–(4-bromophenyl)-1H-benzo[d]imidazol-6-yl)-6,7-dimethoxyquinolin-4-amine] | 46.3 ± 3.7 | 55 ± 3.4 | 38.5 ± 2.4 | 280 to 282 | 54.2 ± 0.1 | 5.5 ± 0.9 | about 50 fold | – | –
COc1cc2nccc(Nc3ccc4nc(-c5ccccc5OC)[nH]c4c3)c2cc1OC [Compound 12o, 6,7-Dimethoxy-N-(2–(2-methoxyphenyl)-1H-benzo[d]imidazol-6-yl)quinolin-4-amine] | > 100 | > 100 | > 100 | 164 to 166 | 24.2 ± 0.1 | – | – | – | –
COc1cc2nccc(Nc3ccc4nc(-c5cc(F)ccc5Br)[nH]c4c3)c2cc1OC [Compound 12s, N-(2–(2-bromo-5-fluorophenyl)-1H-benzo[d]imidazol-6-yl)-6,7-dimethoxyquinolin-4-amine] | 92.7 ± 5.3 | > 100 | > 100 | 284 to 286 | 23.0 ± 1.1 | – | – | loss of activity | –
COc1cc2nccc(Nc3ccc4nc(-c5ccccc5C)[nH]c4c3)c2cc1OC [Compound 12j, 6,7-Dimethoxy-N-(2-(o-tolyl)-1H-benzo[d]imidazol-6-yl)quinolin-4-amine] | > 100 | > 100 | > 100 | 174 to 175 | 23.0 ± 0.4 | – | – | – | –
COc1cc2nccc(Nc3ccc4nc(-c5cccc(I)c5)[nH]c4c3)c2cc1OC [Compound 12i, N-(2–(3-iodophenyl)-1H-benzo[d]imidazol-6-yl)-6,7-dimethoxyquinolin-4-amine] | 30.5 ± 1.6 | 36.1 ± 2.7 | 23.8 ± 2 | 201 to 203 | 66.0 ± 0.8 | 0.54 ± 0.13 | – | – | –
COc1cc2nccc(Nc3ccc4nc(-c5ccc(C(C)(C)C)cc5)[nH]c4c3)c2cc1OC [Compound 12n, N-(2–(4-(tert-butyl)phenyl)-1H-benzo[d]imidazol-6-yl)-6,7-dimethoxyquinolin-4-amine] | 6.1 ± 0.6 | 13.4 ± 0.5 | 7.3 ± 1 | 257 to 259 | 97.1 ± 3.5 | 0.03 ± 0.008 | – | – | –
COc1cc2nccc(Nc3ccc4nc(-c5cccc(C)c5)[nH]c4c3)c2cc1OC [Compound 12k, 6,7-Dimethoxy-N-(2-(m-tolyl)-1H-benzo[d]imidazol-6-yl)quinolin-4-amine] | 78.3 ± 3.5 | 87.2 ± 6.7 | 72.6 ± 6.5 | 339 to 342 | 52.7 ± 1.6 | 8.5 ± 2 | – | – | –
COc1cc2nccc(Nc3ccc4nc(-c5ccc(Cl)c(Cl)c5)[nH]c4c3)c2cc1OC [Compound 12r, N-(2–(3,4-dichlorophenyl)-1H-benzo[d]imidazol-6-yl)-6,7-dimethoxyquinolin-4-amine] | 79.2 ± 1.7 | > 100 | 83.6 ± 4 | 336 to 338 | 55.4 ± 2.9 | 5.3 ± 1.6 | – | – | –
COc1cc2nccc(Nc3ccc4nc(-c5ccc(F)cc5)[nH]c4c3)c2cc1OC [Compound 12c, N-(2–(4-fluorophenyl)-1H-benzo[d]imidazol-6-yl)-6,7-dimethoxyquinolin-4-amine] | 11.3 ± 1.6 | 21 ± 1.8 | 15.6 ± 2.5 | 312 to 315 | 89.2 ± 0.3 | 0.11 ± 0.02 | – | – | 11
